For the assay, the system named is Drosophila Huntington's Disease model flies. Put plainly: In Vivo Drosophila Fly Assay for Treatment of Huntington's Disease (automated climbing behavior, early/late speed effect size). Also on record: species or system Drosophila melanogaster. As to conditions: for Speed 1 to 7 (effect size, early speed): average speed days 1-7 vs DMSO-carrier control; for Speed 8 to 10 (effect size, late speed): average speed days 8-10 vs DMSO-carrier control. The source says: The Drosophila Huntington's Disease assay used to screen compounds of the present invention followed that of WO 2007/002497, which is hereby incorporated by reference in its entirety.
Briefly, parental (model and driver) lines are maintained in sufficient quantities to provide virgins and males for assay crosses as well as perpetuating the lines. Disease model flies are maintained with the disease genes “silent”, functionally linked to a UAS enhancer element. The “driver” lines contain a GAL4 element under the control of a tissue-specific promoter. These are crossed together to generate the assay flies which have tissue-specific (i.e. CNS) expression of the disease gene(s).
Weekly assay crosses are set up with sufficient virgins and males to generate enough assay embryos for sorting. Approximately 50,000 males and 75,000 virgins are crossed in population cages. Embryos are collected for an eight hour window two days later. The embryos are then sorted onto 16 mm assay vials containing regular fly media and allowed to develop. Flies containing both the GAL4 driver element and the disease gene(s) are detected by the presence of GFP, a fluorescing protein. Approximately 10 assay flies eclose per vial, the optimal number for the behavioral assay. Once the flies eclose, they are transferred onto assay vials containing liquid Drosophila food. Similarly, control crosses are set up with virgins of the driver and males from a non-disease UAS line. Throughout fly production and the assay days, all flies are maintained at constant temperature and humidity, with preset light cycle, optimized for the particular lines and crosses.
Quality control (QC) for the parental lines is carried out weekly by collecting a sample of random male flies from each line. Single-fly PCR is carried out to ascertain the presence of the GAL4 or UAS element. If greater than 5% of the individuals lack the appropriate element, the assay cross is aborted. A second form of QC is also carried out to ensure that the GAL4 element is able to drive expression of a transgene. A sample of individual “driver” virgins is crossed to UAS-GFP males. Their progeny are visually checked for GFP expression in the appropriate tissues. Lack of GFP in greater than 4% of the crosses results in the assay being aborted.
Test compounds are weighed out and dissolved in DMSO at stock concentrations 100× what is desired in the assay and arrayed into 96-well master plates, including wells for DMSO-only controls and the positive control(s). A single well is reserved for a colored dye used to ensure proper orientation of compounds during drug dispensing and fly transfer. Replicate daughter plates for each day of the assay are stamped out. The plates are bar coded and stored at −20 C until used for the assay.
For a particular assay day, the plates are thawed and a robotic liquid handler is used to dilute the test compound into the liquid fly food and dispense the mixture into the assay vials. For Huntington Disease (HD) models, eight replicates per single treatment (one compound, one concentration) are dispensed. Fresh test compound treated media is made daily during an assay.
On the day the assay flies eclose (emerge from […]; assay Day 0) they are transferred to the test compound treated vials. On assay Day 1, the flies are transferred onto clean test compound treated vials one hour before assay time. They are then placed in the assay machine to acclimate to the appropriate climate conditions.
The assay machine is an environmentally-enclosed and controlled robot that can maintain user-set temperature and humidity. The machine can hold up to sixteen 96-vial racks in four quadrants, for a total of 1536 vials. There are four camera stations, which hold four vials each and a CCD camera for movie capture. […]

Turning to `O=C(NO)c1cnc(N2C3CNC(C3)C2c2cc(C(F)(F)F)ccn2)nc1` (stereo not drawn), the “Speed 1 to 7 (effect size, early speed)” value runs as follows: (30 uM) 0.468; (100 uM) 0.82; (300 uM) 0.3. Also, the “Speed 8 to 10 (effect size, late speed)” value came to 0.087 (30 uM), 0.82 (100 uM) and 0.54 (300 uM).

For the origin of these results see US8399452B2, “Dibenzo[b,f][1,4]oxazepin-11-yl-N-hydroxybenzamides as HDAC inhibitors” (Methylgene Inc., priority 2006, dated 2013).
